Patent EP4483954A1 (Masarykova Univerzita, priority 2023, dated 2025)

Target: T1, Haspin (h) (Homo sapiens, UniProt Q8TF76)
T1 construct: purchased Eurofins (KinaseProfiler)
T1 sequence (Q8TF76 1-798): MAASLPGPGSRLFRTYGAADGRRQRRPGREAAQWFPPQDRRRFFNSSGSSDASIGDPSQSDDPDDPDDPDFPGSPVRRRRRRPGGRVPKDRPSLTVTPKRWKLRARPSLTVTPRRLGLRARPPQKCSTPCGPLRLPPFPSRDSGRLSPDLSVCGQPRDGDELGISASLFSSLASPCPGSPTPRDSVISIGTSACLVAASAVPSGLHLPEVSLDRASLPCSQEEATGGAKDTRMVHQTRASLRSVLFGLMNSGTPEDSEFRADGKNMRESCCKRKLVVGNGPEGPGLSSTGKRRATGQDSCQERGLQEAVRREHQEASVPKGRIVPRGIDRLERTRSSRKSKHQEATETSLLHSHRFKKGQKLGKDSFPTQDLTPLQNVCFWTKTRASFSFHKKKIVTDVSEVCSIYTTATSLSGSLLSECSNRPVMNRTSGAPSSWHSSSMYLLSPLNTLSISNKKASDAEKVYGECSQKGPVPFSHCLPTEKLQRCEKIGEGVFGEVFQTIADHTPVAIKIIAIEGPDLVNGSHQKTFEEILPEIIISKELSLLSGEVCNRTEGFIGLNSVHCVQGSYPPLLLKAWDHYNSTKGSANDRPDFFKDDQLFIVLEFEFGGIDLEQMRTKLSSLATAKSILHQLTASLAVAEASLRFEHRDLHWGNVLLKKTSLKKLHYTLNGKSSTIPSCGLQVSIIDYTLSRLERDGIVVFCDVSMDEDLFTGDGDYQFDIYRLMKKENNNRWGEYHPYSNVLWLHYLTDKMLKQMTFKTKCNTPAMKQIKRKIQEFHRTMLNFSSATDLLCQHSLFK
Test: radiometric kinase assay (KinaseProfiler, Eurofins), Haspin
Assay type: biochemical
Details: in vitro radiometric kinase assay, tested at 1 nM to 10 000 nM, no pre-incubation; read-out: inhibitory activities (IC50 values) Haspin
Method: The compounds were profiled in the radiometric assays (KinaseProfiler, Eurofins).
Briefly, kinases were diluted in the buffer shown below prior to addition to the reaction mix: • CDKL3, TAF1L: 20 mM Tris/HCl pH 8.5, 0.2 mM EDTA, 0.1% β-mercaptoethanol, 0.01% Brij-35, 5% glycerol, 1 mg/ml BSA; • Haspin: 15 mM MOPS, 0.75 mM EDTA, 0.0075% Brij-35, 3.75% Glycerol, 150 mM NaCl, 0.1% β-mercaptoethanol, 1 mg/mLBSA; • CDKL4, CLK2, PIM1, TRB2: […], 1 mM EDTA, 0.01% Brij-35, 5% Glycerol, 0.1% β-mercaptoethanol, 1 mg/mL BSA.
All compounds were prepared to 50x final assay concentration in 100% DMSO. This working stock of the compound was added to the assay well as the first component in the reaction, followed by the remaining components as detailed in the general assay protocols below. There was no pre-incubation step between the compound and the kinase prior to initiation of the reaction.
Haspin (h) was incubated with 8 mM MOPS pH 7.0, 0.2 mM EDTA, 500 µM RARTLSFAEPG (SEQ ID NO. 3), 10 mM magnesium acetate and γ-^33P-ATP (specific activity and concentration as required). The reaction was initiated by the addition of the Mg/ATP mix. After incubation for 40 minutes at room temperature, the reaction was stopped by the addition of phosphoric acid to a concentration of 0.5%. An aliquot of the reaction was then spotted onto a filter and washed four times for 4 minutes in 0.425% phosphoric acid and once in methanol prior to drying and scintillation counting.
Kinase activity data were expressed as the percent remaining kinase activity in tested samples compared to the vehicle (DMSO) reactions. The compounds were tested at the following concentrations: 1 nM, 3 nM, 10 nM, 30 nM, 100 nM, 300 nM, 1000 nM, 3000 nM, and 10 000 nM; IC50 values and curve fits were then obtained.

Structure (SMILES)	IC50
Cn1cc(-c2ccc3scc(-c4cc5ncccn5n4)c3n2)cn1 [Preparative Example 61, 5-(1-methyl-1H-pyrazol-4-yl)-3-(pyrazolo[1,5-a]pyrimidin-2-yl)thieno[3,2-b]pyridine]	100 to 499 nM
c1nc2ccc(-c3csc4ccc(Nc5cn[nH]c5)nc34)cn2n1 [Preparative Example 134, 3-([1,2,4]triazolo[1,5-a]pyridin-6-yl)-N-(1H-pyrazol-4-yl)thieno[3,2-b]pyridin-5-amine]	100 to 499 nM
c1cc(-c2csc3ccc(Nc4cn[nH]c4)nc23)ccn1 [Preparative Example 98, N-(1H-pyrazol-4-yl)-3-(pyridin-4-yl)thieno[3,2-b]pyridin-5-amine]	20 to 99 nM
c1ccc(-c2csc3ccc(-c4cn[nH]c4)nc23)cc1 [Preparative Example 121, 3-phenyl-5-(1H-pyrazol-4-yl)thieno[3,2-b]pyridine]	100 to 499 nM
c1cc(-c2csc3ccc(Nc4ccncn4)nc23)ccn1 [Preparative Example 114, 3-(pyridin-4-yl)-N-(pyrimidin-4-yl)thieno[3,2-b]pyridin-5-amine]	500 to 3000 nM
Cc1ccc(S(=O)(=O)n2ccc3c(-c4csc5ccc(-c6cnn(C)c6)nc45)ccnc32)cc1 [Preparative Example 44, 5-(1-methyl-1H-pyrazol-4-yl)-3-(1-tosyl-1H-pyrrolo[2,3-b]pyridin-4-yl)thieno[3,2-b]pyridine]	3000 to 10000 nM
Cn1cc(-c2ccc3scc(-c4ccc(C#N)cc4)c3n2)cn1 [Preparative Example 4, 4-(5-(1-methyl-1H-pyrazol-4-yl)thieno[3.2-b]pyridin-3-yl)benzonitrile]	100 to 499 nM
Cn1cc(-c2ccc3scc(-c4ccc(N5CCOCC5)nc4)c3n2)cn1 [Preparative Example 42, 4-(5-(5-(1-methyl-1H-pyrazol-4-yl)thieno[3,2-b]-pyridin-3-yl)pyridin-2-yl)morpholine]	500 to 3000 nM
c1cnnc(Nc2ccc3scc(-c4ccncc4)c3n2)c1 [Preparative Example 113, N-(pyridazin-3-yl)-3-(pyridin-4-yl)thieno[3,2-b]pyridin-5-amine]	100 to 499 nM
c1cc(-c2ccc3scc(-c4ccc5ncnn5c4)c3n2)ccn1 [Preparative Example 132, 3-([1,2,4]triazolo[1,5-a]pyridin-6-yl)-5-(pyridin-4-yl)thieno[3,2-b]pyridine]	20 to 99 nM
Cn1cc(-c2ccc3scc(-c4ccc(F)cc4)c3n2)cn1 [Preparative Example 6, 3-(4-fluorophenyl)-5-(1-methyl-1H-pyrazol-4-yl)-thieno[3,2-b]pyridine]	100 to 499 nM
Cn1cc(-c2ccc3scc(-c4ccc5ncncc5c4)c3n2)cn1 [Preparative Example 47, 5-(1-methyl-1H-pyrazol-4-yl)-3-(quinazolin-6-yl)thieno[3,2-b]pyridine]	100 to 499 nM
Cn1cc(-c2ccc3scc(-c4ccc5n[nH]cc5c4)c3n2)cn1 [Preparative Example 51, 3-(2H-indazol-5-yl)-5-(1-methyl-1H-pyrazol-4-yl)thieno[3,2-b]-pyridine]	100 to 499 nM
CC(C)(C)OC(=O)N1CCO[C@H](COc2ccc3scc(-c4ccncc4)c3n2)C1 [Preparative Example 117, tert-butyl (S)-2-(((3-(pyridin-4-yl)thieno[3,2-b]pyridin-5-yl)oxy)-methyl)morpholine-4-carboxylate]	3000 to 10000 nM
Cn1cc(-c2ccc3scc(-c4ccc5nccnc5c4)c3n2)cn1 [Preparative Example 49, 5-(1-methyl-1H-pyrazol-4-yl)-3-(quinoxalin-6-yl)thieno[3,2-b]pyridine]	20 to 99 nM

Further lines, results first:

IC50	Structure (SMILES)
500 to 3000 nM	c1cc(-c2csc3ccc(-c4ccns4)nc23)ccn1 [Preparative Example 92, 5-(isothiazol-5-yl)-3-(pyridin-4-yl)thieno[3,2-b]pyridine]
500 to 3000 nM	Cc1sc2ccc(-c3ccn(C)n3)nc2c1-c1ccncc1 [Preparative Example 143, 2-methyl-5-(1-methyl-1H-pyrazol-3-yl)-3-(pyridin-4-yl)thieno[3,2-b]pyridine]
3000 to 10000 nM	Cn1ncnc1-c1ccc2scc(-c3ccncc3)c2n1 [Preparative Example 96, 5-(1-methyl-1H-1,2,4-triazol-5-yl)-3-(pyridin-4-yl)thieno[3,2-b]pyridine]
500 to 3000 nM	Cn1nc(Nc2ccc3scc(-c4ccncc4)c3n2)cc1N [Preparative Example 104, 1-methyl-N3-(3-(pyridin-4-yl)thieno[3,2-b]pyridin-5-yl)-1H-pyrazole-3,5-diamine]
100 to 499 nM	Cn1ccc(-c2ccc3scc(-c4ccns4)c3n2)n1 [Preparative Example 119, 3-(isothiazol-5-yl)-5-(1-methyl-1H-pyrazol-3-yl)thieno[3,2-b]pyridine]
500 to 3000 nM	c1ccc(Cn2ccc(-c3ccc4scc(-c5ccncc5)c4n3)n2)cc1 [Preparative Example 89, 5-(1-benzyl-1H-pyrazol-3-yl)-3-(pyridin-4-yl)thieno[3,2-b]pyridine]
500 to 3000 nM	c1ccc(-n2ccc(-c3ccc4scc(-c5ccncc5)c4n3)n2)cc1 [Preparative Example 88, 5-(1-phenyl-1H-pyrazol-3-yl)-3-(pyridin-4-yl)thieno[3,2-b]pyridine]
100 to 499 nM	Cc1cc(-c2ccn(C)n2)nc2c(-c3ccncc3)csc12 [Preparative Example 158, 7-methyl-5-(1-methyl-1H-pyrazol-3-yl)-3-(pyridin-4-yl)thieno[3,2-b]pyridine]
3000 to 10000 nM	CCOC(=O)c1cn(C)nc1Nc1ccc2scc(-c3ccncc3)c2n1 [Preparative Example 107, Ethyl 1-methyl-3-((3-(pyridin-4-yl)thieno[3,2-b]pyridin-5-yl)amino)-1H-pyrazole-4-carboxylate]
3000 to 10000 nM	CCOC(=O)c1cc(Nc2ccc3scc(-c4ccncc4)c3n2)nn1C [Preparative Example 105, Ethyl 1-methyl-3-((3-(pyridin-4-yl)thieno[3,2-b]pyridin-5-yl)amino)-1H-pyrazole-5-carboxylate]
100 to 499 nM	Cn1ccc(-c2ccc3scc(-c4ccc5ncnn5c4)c3n2)n1 [Preparative Example 129, 3-([1,2,4]triazolo[1,5-a]pyridin-6-yl)-5-(1-methyl-1H-pyrazol-3-yl)thieno[3,2-b]pyridine]
